{
  "source": "patent US20070142447A1",
  "about": "“Veterinary composition comprising an arylpyrazole and a nitroenamine with enhanced antiparasitic activity” (Intervet International B.V., priority 2004, published 2007)",
  "origin": "cited, not measured here",
  "key": {"[1]": {"settings": "cats"}, "[2]": {"settings": "dogs"}, "fleas": {"tested_on": "fleas", "settings": "after 72 hours"}},
  "note": "Where two headings read alike, the source gives them in different places.",
  "data": [
    {"smiles": "CCN(Cc1ccc(Cl)nc1)/C(=C/[N+](=O)[O-])NC", "note": "[nitenpyram, (E)-N-(6-chloro-pyridin-3-ylmethyl)-N-ethyl-N-methyl-2-methyl-2-nitrovinylidenediamine]", "values": [
      {"measurement": "half-life in the blood", "setting": "[1]", "value": 7.7, "unit": "h"},
      {"measurement": "mean residence time", "setting": "[1]", "value": 10.2, "unit": "h"},
      {"measurement": "half-life in the blood", "setting": "[2]", "value": 2.8, "unit": "h"},
      {"measurement": "mean residence time", "setting": "[2]", "value": 4.1, "unit": "h"},
      {"measurement": "lethality of nitenpyram levels in host blood to fleas", "setting": "fleas", "value": "not lethal to fleas"}
    ]}
  ]
}
